Assay results from the Kinase Knowledgebase extract (Sharma et al. 2016).
Several values for one entry are separate records, joined by “and”; a condition that tells them apart may be missing. Equal entries are not always repeated.

Target: MAPK14 (human) (UniProt Q16539)
Assay: Inhibition of MAPK14 Kinase Activity

Chain of MAPK14 (human) (Q16539 whole entry, looked up): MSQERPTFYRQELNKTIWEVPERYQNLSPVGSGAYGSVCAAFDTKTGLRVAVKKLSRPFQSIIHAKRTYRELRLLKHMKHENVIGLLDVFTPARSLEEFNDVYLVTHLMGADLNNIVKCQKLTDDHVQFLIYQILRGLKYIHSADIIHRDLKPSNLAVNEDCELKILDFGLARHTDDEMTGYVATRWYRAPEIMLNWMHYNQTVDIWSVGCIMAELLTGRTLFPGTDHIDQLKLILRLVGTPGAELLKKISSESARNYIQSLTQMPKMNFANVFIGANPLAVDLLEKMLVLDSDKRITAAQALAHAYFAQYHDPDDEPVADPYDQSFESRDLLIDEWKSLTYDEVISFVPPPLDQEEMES

| IC50 | SMILES |
| --- | --- |
| 2680 nM | Cc1cc(F)ccc1-c1n[nH]c(C2CCN(C(=O)CO)CC2)c1-c1ccncn1 |
| 9.27 nM | Fc1ccc(CN2CCC(c3[nH]nc(-c4ccc(Cl)cc4)c3-c3ccncn3)CC2)cc1 |
| 339 nM | O=C(CO)N1CCC(c2[nH]nc(-c3ccc(F)c(C(F)(F)F)c3)c2-c2ccncn2)CC1 |
| 155 nM | Cc1cc(-c2n[nH]c(C3CCN(C(=O)CO)CC3)c2-c2ccncn2)ccc1F |
| 5.76 nM | C[C@@H](N[C@H]1CC[C@H](c2[nH]nc(-c3ccc(Cl)cc3)c2-c2ccncn2)CC1)c1ccc(F)cc1 |
| 455 nM | O=C(CO)N1CCC(c2[nH]nc(-c3ccc(Cl)c(F)c3)c2-c2ccncn2)CC1 |
| 10 nM | O=C(CO)N1CCC(c2[nH]nc(-c3ccc(Cl)cc3)c2-c2ccnc(NC3CCCC3)n2)CC1 |
| > 100000 nM | COc1ccc(-c2n[nH]c(C3CCN(C(=O)CO)CC3)c2-c2ccncn2)cc1OC |
| 1000 nM | CN(C)CCNc1nccc(-c2c(-c3ccc(Cl)cc3F)n[nH]c2C2CCN(C)CC2)n1 |
| 1680 nM | CC(C)(C)OC(=O)N1CCC(c2[nH]nc(-c3ccc(Cl)cc3)c2-c2ccnc(O[C@H]3CCOC3)n2)CC1 |
| 120 nM | O=C(C1CCCO1)N1CCC(c2[nH]nc(-c3ccc(Cl)cc3)c2-c2ccncn2)CC1 (centres undefined) |
| 572 nM | CC(=O)O[C@@H](C(=O)N1CCC(c2[nH]nc(-c3ccc(Cl)cc3)c2-c2ccncn2)CC1)c1ccccc1 |
| 111 nM | CN(C)CCNc1nccc(-c2c(-c3ccc(F)c(C(F)(F)F)c3)n[nH]c2C2CCNCC2)n1 |
| 10 nM | CC(C)(C)OC(=O)N1CCC(c2[nH]nc(-c3ccc(Cl)cc3F)c2-c2ccnc(NC3CCCC3)n2)CC1 |
| 859 nM | CN(C)CCNc1nccc(-c2c(-c3ccc(Cl)cc3)n[nH]c2C2CCN(C(=O)CO)CC2)n1 |
| 130 nM and 61 nM | C[C@H](N[C@H]1CC[C@@H](c2[nH]nc(-c3ccc(Cl)cc3)c2-c2ccncn2)CC1)c1ccc(F)cc1 |

| SMILES | IC50 |
| --- | --- |
| Clc1ccc(-c2n[nH]c([C@H]3CC[C@@H](NC4CCCCC4)CC3)c2-c2ccncn2)cc1 | 235 nM |
| C[C@@H](N[C@H]1CC[C@H](c2[nH]nc(-c3ccc(Cl)cc3)c2-c2ccncn2)CC1)c1ccccc1 | 8.56 nM |
| C[C@H](N[C@H]1CC[C@@H](c2[nH]nc(-c3ccc(Cl)cc3)c2-c2ccncn2)CC1)c1ccccc1 | 112 nM and 44.9 nM |
